Converted amounts (≈) assume the structure as drawn.
Experiments:
Experiment in all cases: antimicrobial activity, broth dilution method
Assay type in all cases: cell-based
[1] = tested on: Sarcina lutea ATCC 9341; conditions: for minimum inhibitory concentration (MIC): Sarcina lutea ATCC 9341; for MIC: Micrococcus luteus, ATCC9341, Sarcina lutea ATCC 9341, read-out: minimum inhibitory concentration (MIC)
Method: (§1) Antimicrobial activity of the new antibiotics according to the present invention was measured on various pathogenic microorganisms by the broth dilution mehtod. Tab. […] The new antibiotics show a similar antimicrobial spectrum to that of tylosin as shown in Tab. 4. All the compounds have an excellent antimicrobial activity mainly on gram-positive bacteria. […] Test microorganisms with an asterisk mark (*) in Tab. 4 are all drug-resistant strains that were clinically isolated. More in detail, Staphylococcus aureus MS-8710 is resistant to tylosin, penicillin, tetracycline, erythromycin and leucomycin. Staphylococcus aureus MS-9931 is resistant to tylosin, penicillin, erythromycin, tetracycline, leucomycin, spiramycin and josamycin. And also Streptococcus piogenes is resistant to tylosin, erythromycin, oleandomycin and leucomycin.

[2] = tested on: Staphylococcus aureus MS-9931; conditions: Staphylococcus aureus MS-9931, drug-resistant clinical isolate; for MIC: MS9931, read-out: minimum inhibitory concentration (MIC)
Method: as §1

[3] = tested on: Staphylococcus aureus SMITH; conditions: Staphylococcus aureus SMITH, broth dilution; for MIC: Staphylococcus aureus, read-out: minimum inhibitory concentration (MIC)
Method: as §1

[4] = tested on: Bacillus cereus ATCC 9634; conditions: broth dilution; for minimum inhibitory concentration (MIC): Bacillus cereus ATCC 9634; for MIC: Bacillus cereus, ATCC9634, Bacillus cereus ATCC 9634, read-out: minimum inhibitory concentration (MIC)
Method: as §1

[5] = tested on: Streptococcus pyogenes MH-771; conditions: for minimum inhibitory concentration (MIC): Streptococcus pyogenes MH-771, drug-resistant clinical isolate; for MIC: Streptococcus pyogenes, MH771, Streptococcus pyogenes MH-771, drug-resistant clinical isolate, read-out: minimum inhibitory concentration (MIC)
Method: as §1

[6] = tested on: Staphylococcus aureus FDA-209P; conditions: Staphylococcus aureus FDA-209P, broth dilution; for MIC: Staphylococcus aureus, FDA209P, read-out: minimum inhibitory concentration (MIC)
Method: as §1

[7] = tested on: Staphylococcus aureus MS-8710; conditions: for minimum inhibitory concentration (MIC): Staphylococcus aureus MS-8710, drug-resistant clinical isolate; for MIC: Staphylococcus aureus, MS8710, Staphylococcus aureus MS-8710, drug-resistant clinical isolate, read-out: minimum inhibitory concentration (MIC)
Method: as §1

[8] = tested on: Staphylococcus aureus MS-9937; conditions: Staphylococcus aureus MS-9937, drug-resistant clinical isolate; for MIC: MS9937, read-out: minimum inhibitory concentration (MIC)
Method: as §1

Row | Compound | minimum inhibitory concentration (MIC) [1] [µg/mL] | minimum inhibitory concentration (MIC) [2] [µg/mL] | minimum inhibitory concentration (MIC) [3] [µg/mL] | minimum inhibitory concentration (MIC) [4] [µg/mL] | minimum inhibitory concentration (MIC) [5] [µg/mL] | minimum inhibitory concentration (MIC) [6] [µg/mL] | minimum inhibitory concentration (MIC) [7] [µg/mL] | minimum inhibitory concentration (MIC) [8] [µg/mL] | MIC [1] [µg/mL] | MIC [2] [µg/mL] | MIC [3] [µg/mL] | MIC [4] [µg/mL] | MIC [5] [µg/mL] | MIC [6] [µg/mL] | MIC [7] [µg/mL] | MIC [8] [µg/mL]
1 | 3-acetyl-4"-(1-imidazolyl)propionyltylosin [Compound 33] | 0.78 | 50 | 1.56 | 1.56 | 12.5 | 1.56 | 25 | 50 |  |  |  |  |  |  |  | 
2 | 4"-thienylacetyltylosin [Compound 30] | 0.19 | 25 | 0.39 | 0.39 | 6.25 | 0.39 | 12.5 | 25 |  |  |  |  |  |  |  | 
3 | CCC1OC(=O)CC(O)C(C)C(OC2OC(C)C(OC3CC(C)(O)C(O)C(C)O3)C(N(C)C)C2OC(C)=O)C(CC=O)CC(C)C(=O)C=CC(C)=CC1COC1OC(C)C(O)C(OC)C1OC (stereo not drawn) [2'-acetyltylosin, reference compound] |  |  |  |  |  |  |  |  | 0.39 (≈ 0.407 µM) | 200 (≈ 209 µM) | 1.56 (≈ 1.63 µM) | 1.56 (≈ 1.63 µM) | > 200 | 1.56 (≈ 1.63 µM) | > 200 | 200 (≈ 209 µM)
4 | CCC1OC(=O)CC(O)C(C)C(OC2OC(C)C(OC3CC(C)(O)C(O)C(C)O3)C(N(C)C)C2OC(=O)CCl)C(CC=O)CC(C)C(=O)C=CC(C)=CC1COC1OC(C)C(O)C(OC)C1OC (stereo not drawn) [2'-monochloroacetyltylosin, reference compound] |  |  |  |  |  |  |  |  | 0.39 (≈ 0.393 µM) | 200 (≈ 201 µM) | 1.56 (≈ 1.57 µM) | 1.56 (≈ 1.57 µM) | > 200 | 1.56 (≈ 1.57 µM) | > 200 | 200 (≈ 201 µM)
5 | CCC(=O)OC1C(OC2C(CC=O)CC(C)C(=O)C=CC(C)=CC(COC3OC(C)C(O)C(OC)C3OC)C(CC)OC(=O)CC(O)C2C)OC(C)C(OC2CC(C)(O)C(O)C(C)O2)C1N(C)C (stereo not drawn) [2'-propionyltylosin, reference compound] |  |  |  |  |  |  |  |  | 0.39 (≈ 0.401 µM) | 200 (≈ 206 µM) | 1.56 (≈ 1.6 µM) | 1.56 (≈ 1.6 µM) | > 200 | 1.56 (≈ 1.6 µM) | > 200 | 200 (≈ 206 µM)
6 | CCC1OC(=O)CC(OC(C)=O)C(C)C(OC2OC(C)C(OC3CC(C)(O)C(O)C(C)O3)C(N(C)C)C2OC(C)=O)C(CC=O)CC(C)C(=O)C=CC(C)=CC1COC1OC(C)C(O)C(OC)C1OC (stereo not drawn) [3,2'-diacetyltylosin, reference compound] |  |  |  |  |  |  |  |  | 0.39 (≈ 0.39 µM) | 200 (≈ 200 µM) | 1.56 (≈ 1.56 µM) | 1.56 (≈ 1.56 µM) | > 200 | 1.56 (≈ 1.56 µM) | > 200 | 200 (≈ 200 µM)
7 | CCC1OC(=O)CC(O)C(C)C(OC2OC(C)C(OC3CC(C)(O)C(O)C(C)O3)C(N(C)C)C2OC(C)=O)C(CC=O)CC(C)C(=O)C=CC(C)=CC1COC1OC(C)C(OC(=O)CCl)C(OC)C1OC (stereo not drawn) [Compound 1, 2'-acetyl-4'"-monochloracetyltylosin] |  |  |  |  |  |  |  |  | 0.78 (≈ 0.754 µM) | 200 (≈ 193 µM) | 1.56 (≈ 1.51 µM) | 1.56 (≈ 1.51 µM) | 200 (≈ 193 µM) | 1.56 (≈ 1.51 µM) | > 200 | 200 (≈ 193 µM)
8 | CCC1OC(=O)CC(O)C(C)C(OC2OC(C)C(OC3CC(C)(O)C(O)C(C)O3)C(N(C)C)C2OC(C)=O)C(CC=O)CC(C)C(=O)C=CC(C)=CC1COC1OC(C)C(OC(=O)C(Cl)(Cl)Cl)C(OC)C1OC (stereo not drawn) [Compound 2, 2'-acetyl-4'"-trichloroacetyltylosin] |  |  |  |  |  |  |  |  | 0.39 (≈ 0.353 µM) | 100 (≈ 90.6 µM) | 1.56 (≈ 1.41 µM) | 1.56 (≈ 1.41 µM) | 200 (≈ 181 µM) | 1.56 (≈ 1.41 µM) | 200 (≈ 181 µM) | 100 (≈ 90.6 µM)
9 | CCC1OC(=O)CC(OC(C)=O)C(C)C(OC2OC(C)C(OC3CC(C)(O)C(O)C(C)O3)C(N(C)C)C2OC(C)=O)C(CC=O)CC(C)C(=O)C=CC(C)=CC1COC1OC(C)C(OC(=O)CCl)C(OC)C1OC (stereo not drawn) [Compound 3, 3,2'-diacetyl-4'"-monochloroacetyltylosin] |  |  |  |  |  |  |  |  | 0.78 (≈ 0.724 µM) | 100 (≈ 92.9 µM) | 1.56 (≈ 1.45 µM) | 1.56 (≈ 1.45 µM) | 100 (≈ 92.9 µM) | 1.56 (≈ 1.45 µM) | 100 (≈ 92.9 µM) | 100 (≈ 92.9 µM)
10 | CCC1OC(=O)CC(OC(C)=O)C(C)C(OC2OC(C)C(OC3CC(C)(O)C(O)C(C)O3)C(N(C)C)C2OC(C)=O)C(CC=O)CC(C)C(=O)C=CC(C)=CC1COC1OC(C)C(OC(=O)C(Cl)(Cl)Cl)C(OC)C1OC (stereo not drawn) [Compound 4, 3,2'-diacetyl-4'"-trichloroacetyltylosin] |  |  |  |  |  |  |  |  | 0.39 (≈ 0.34 µM) | 100 (≈ 87.3 µM) | 1.56 (≈ 1.36 µM) | 1.56 (≈ 1.36 µM) | 100 (≈ 87.3 µM) | 1.56 (≈ 1.36 µM) | 100 (≈ 87.3 µM) | 100 (≈ 87.3 µM)
11 | CCC1OC(=O)CC(O)C(C)C(OC2OC(C)C(OC3CC(C)(O)C(O)C(C)O3)C(N(C)C)C2OC(C)=O)C(CC=O)CC(C)C(=O)C=CC(C)=CC1COC1OC(C)C(OC(=O)COc2ccccc2)C(OC)C1OC (stereo not drawn) [Compound 5, 2'-acetyl-4'"-phenoxyacetyltylosin] |  |  |  |  |  |  |  |  | 0.39 (≈ 0.357 µM) | 100 (≈ 91.6 µM) | 0.78 (≈ 0.714 µM) | 0.78 (≈ 0.714 µM) | 100 (≈ 91.6 µM) | 0.78 (≈ 0.714 µM) | 100 (≈ 91.6 µM) | 100 (≈ 91.6 µM)
12 | CCOC(=O)OC1C(C)OC(OCC2C=C(C)C=CC(=O)C(C)CC(CC=O)C(OC3OC(C)C(OC4CC(C)(O)C(O)C(C)O4)C(N(C)C)C3OC(C)=O)C(C)C(OC(C)=O)CC(=O)OC2CC)C(OC)C1OC (stereo not drawn) [Compound 6, 3,2'-diacetyl-4'"-carboethoxytylosin] |  |  |  |  |  |  |  |  | 0.39 (≈ 0.364 µM) | 100 (≈ 93.3 µM) | 0.78 (≈ 0.727 µM) | 0.78 (≈ 0.727 µM) | 100 (≈ 93.3 µM) | 0.78 (≈ 0.727 µM) | 100 (≈ 93.3 µM) | 100 (≈ 93.3 µM)
13 | CCCCCC(=O)OC1C(C)OC(OC2C(C)OC(OC3C(CC=O)CC(C)C(=O)C=CC(C)=CC(COC4OC(C)C(O)C(OC)C4OC)C(CC)OC(=O)CC(O)C3C)C(O)C2N(C)C)CC1(C)O (stereo not drawn) [Compound 7, 4"-n-caproyl(or n-hexanoyl)tylosin] |  |  |  |  |  |  |  |  | 0.39 (≈ 0.385 µM) | 25 (≈ 24.6 µM) | 0.78 (≈ 0.769 µM) | 0.78 (≈ 0.769 µM) | 6.25 (≈ 6.16 µM) | 0.78 (≈ 0.769 µM) | 12.5 (≈ 12.3 µM) | 12.5 (≈ 12.3 µM)
14 | CCCCCC(=O)OC1C(C)OC(OC2C(C)OC(OC3C(CC=O)CC(C)C(=O)C=CC(C)=CC(COC4OC(C)C(O)C(OC)C4OC)C(CC)OC(=O)CC(OC(C)=O)C3C)C(O)C2N(C)C)CC1(C)O (stereo not drawn) [Compound 8, 3-acetyl-4"-n-caproyl(or n-hexanoyl)tylosin] |  |  |  |  |  |  |  |  | 0.39 (≈ 0.369 µM) | 25 (≈ 23.7 µM) | 0.78 (≈ 0.738 µM) | 0.78 (≈ 0.738 µM) | 6.25 (≈ 5.92 µM) | 0.39 (≈ 0.369 µM) | 25 (≈ 23.7 µM) | 25 (≈ 23.7 µM)
15 | CCCCCCCC(=O)OC1C(C)OC(OC2C(C)OC(OC3C(CC=O)CC(C)C(=O)C=CC(C)=CC(COC4OC(C)C(O)C(OC)C4OC)C(CC)OC(=O)CC(O)C3C)C(O)C2N(C)C)CC1(C)O (stereo not drawn) [Compound 9, 4"-n-caprylyl(or n-octanoyl)tylosin] |  |  |  |  |  |  |  |  | 0.39 (≈ 0.374 µM) | 25 (≈ 24 µM) | 0.78 (≈ 0.748 µM) | 1.56 (≈ 1.5 µM) | 25 (≈ 24 µM) | 0.78 (≈ 0.748 µM) | 25 (≈ 24 µM) | 25 (≈ 24 µM)
16 | CCCCCCCCCC(=O)OC1C(C)OC(OC2C(C)OC(OC3C(CC=O)CC(C)C(=O)C=CC(C)=CC(COC4OC(C)C(O)C(OC)C4OC)C(CC)OC(=O)CC(O)C3C)C(O)C2N(C)C)CC1(C)O (stereo not drawn) [Compound 10, 4"-n-capryl(or n-decanoyl)tylosin] |  |  |  |  |  |  |  |  | 0.78 (≈ 0.729 µM) | 50 (≈ 46.7 µM) | 1.56 (≈ 1.46 µM) | 1.56 (≈ 1.46 µM) | 50 (≈ 46.7 µM) | 1.56 (≈ 1.46 µM) | 100 (≈ 93.4 µM) | 100 (≈ 93.4 µM)
17 | CCC1OC(=O)CC(O)C(C)C(OC2OC(C)C(OC3CC(C)(O)C(OC(=O)CCC(C)C)C(C)O3)C(N(C)C)C2O)C(CC=O)CC(C)C(=O)C=CC(C)=CC1COC1OC(C)C(O)C(OC)C1OC (stereo not drawn) [Compound 11, 4"-iso-caproyl(or iso-hexanoyl)tylosin] |  |  |  |  |  |  |  |  | 0.39 (≈ 0.385 µM) | 12.5 (≈ 12.3 µM) | 0.78 (≈ 0.769 µM) | 0.78 (≈ 0.769 µM) | 6.25 (≈ 6.16 µM) | 0.78 (≈ 0.769 µM) | 12.5 (≈ 12.3 µM) | 12.5 (≈ 12.3 µM)
18 | CCC1OC(=O)CC(OC(C)=O)C(C)C(OC2OC(C)C(OC3CC(C)(O)C(OC(=O)C(O)c4ccccc4)C(C)O3)C(N(C)C)C2O)C(CC=O)CC(C)C(=O)C=CC(C)=CC1COC1OC(C)C(O)C(OC)C1OC [Compound 18, 3-acetyl-4"-L-(α-hydroxyphenylacetyl)tylosin] |  |  |  |  |  |  |  |  | 0.39 (≈ 0.357 µM) |  | 0.78 (≈ 0.714 µM) | 0.78 (≈ 0.714 µM) |  | 0.78 (≈ 0.714 µM) | 25 (≈ 22.9 µM) | 
